Measurements as given in patent US20150247179A1 (Les Laboratoires Servier, priority 2013, published 2015).
Where two headings read alike, the source gives them in different places.

What was measured:
[1] = human
Procedure: (§1) Each active ingredient was incubated at 0.1 μM at 37° C. […] The reaction is initiated by addition of NADPH 1 mM. The incubation is monitored in kinetic form. At the incubation timepoints of 7 min, 17 min, 30 min and then 60 min, an incubation aliquot (100 μL) is sampled and the enzymatic reaction is stopped by adding to that aliquot a to volume of solvent (100 μL of methanol) which is placed in ice for 10 minutes.
(§2) At each incubation timepoint, the active ingredient is quantified by high-performance liquid chromatography (HPLC) coupled with mass spectrometry (MS).

CYP1A2 = tested on: CYP1A2
Procedure: as §1, §2

CYP2D6 [2] = target: T1, CYP2D6 (Homo sapiens, UniProt P10635)
T1 sequence (P10635 whole entry): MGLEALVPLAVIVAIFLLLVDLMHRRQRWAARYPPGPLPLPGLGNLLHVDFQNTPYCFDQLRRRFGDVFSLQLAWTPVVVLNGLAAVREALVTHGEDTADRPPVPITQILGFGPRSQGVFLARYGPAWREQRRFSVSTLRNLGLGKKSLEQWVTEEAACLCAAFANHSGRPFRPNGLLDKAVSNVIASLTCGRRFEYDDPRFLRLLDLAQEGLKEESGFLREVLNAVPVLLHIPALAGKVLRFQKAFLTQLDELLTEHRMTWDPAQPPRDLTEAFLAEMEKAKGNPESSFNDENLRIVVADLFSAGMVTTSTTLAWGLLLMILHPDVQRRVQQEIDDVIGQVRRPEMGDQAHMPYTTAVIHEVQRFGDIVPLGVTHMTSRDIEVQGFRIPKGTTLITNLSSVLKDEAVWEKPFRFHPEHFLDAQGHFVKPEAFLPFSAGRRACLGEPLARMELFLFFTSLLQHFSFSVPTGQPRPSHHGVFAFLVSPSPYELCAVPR
Procedure: as §1, §2

CYP2C9 = CYP2C9 (Homo sapiens, UniProt P11712)
Sequence of CYP2C9 (P11712 whole entry): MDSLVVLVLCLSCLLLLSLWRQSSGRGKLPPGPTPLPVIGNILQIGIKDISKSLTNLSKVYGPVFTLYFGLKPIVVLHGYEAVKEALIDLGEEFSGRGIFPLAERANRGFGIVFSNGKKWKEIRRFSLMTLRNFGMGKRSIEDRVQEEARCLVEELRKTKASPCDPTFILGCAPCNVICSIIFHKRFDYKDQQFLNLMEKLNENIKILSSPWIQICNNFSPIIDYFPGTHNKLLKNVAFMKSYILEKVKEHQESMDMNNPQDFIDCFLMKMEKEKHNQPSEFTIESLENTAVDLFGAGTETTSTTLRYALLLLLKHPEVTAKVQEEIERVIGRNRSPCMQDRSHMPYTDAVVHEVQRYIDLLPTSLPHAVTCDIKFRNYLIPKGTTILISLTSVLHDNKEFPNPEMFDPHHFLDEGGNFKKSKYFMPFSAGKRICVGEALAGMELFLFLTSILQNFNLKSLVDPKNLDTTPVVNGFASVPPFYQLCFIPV
Procedure: as §1, §2

CYP2C8 = target: T2, CYP2C8 (Homo sapiens, UniProt P10632)
T2 sequence (P10632 1-490): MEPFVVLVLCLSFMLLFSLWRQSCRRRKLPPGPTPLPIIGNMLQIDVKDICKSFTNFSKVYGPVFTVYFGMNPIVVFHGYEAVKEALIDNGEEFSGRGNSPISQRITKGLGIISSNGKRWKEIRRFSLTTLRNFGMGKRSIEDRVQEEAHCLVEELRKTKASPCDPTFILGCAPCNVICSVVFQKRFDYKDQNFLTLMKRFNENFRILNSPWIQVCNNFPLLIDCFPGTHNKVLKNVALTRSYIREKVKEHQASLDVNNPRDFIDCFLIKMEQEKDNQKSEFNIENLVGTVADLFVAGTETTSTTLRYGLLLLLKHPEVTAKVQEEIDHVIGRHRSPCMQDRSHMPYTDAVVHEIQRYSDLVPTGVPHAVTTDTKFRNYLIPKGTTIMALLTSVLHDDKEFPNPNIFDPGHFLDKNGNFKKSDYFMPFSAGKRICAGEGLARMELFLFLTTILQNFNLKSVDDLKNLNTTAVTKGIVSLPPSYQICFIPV
Procedure: as §1, §2

CYP2B6 [3] = target: T3, CYP2B6 (Homo sapiens, UniProt P20813)
T3 sequence (P20813 1-491): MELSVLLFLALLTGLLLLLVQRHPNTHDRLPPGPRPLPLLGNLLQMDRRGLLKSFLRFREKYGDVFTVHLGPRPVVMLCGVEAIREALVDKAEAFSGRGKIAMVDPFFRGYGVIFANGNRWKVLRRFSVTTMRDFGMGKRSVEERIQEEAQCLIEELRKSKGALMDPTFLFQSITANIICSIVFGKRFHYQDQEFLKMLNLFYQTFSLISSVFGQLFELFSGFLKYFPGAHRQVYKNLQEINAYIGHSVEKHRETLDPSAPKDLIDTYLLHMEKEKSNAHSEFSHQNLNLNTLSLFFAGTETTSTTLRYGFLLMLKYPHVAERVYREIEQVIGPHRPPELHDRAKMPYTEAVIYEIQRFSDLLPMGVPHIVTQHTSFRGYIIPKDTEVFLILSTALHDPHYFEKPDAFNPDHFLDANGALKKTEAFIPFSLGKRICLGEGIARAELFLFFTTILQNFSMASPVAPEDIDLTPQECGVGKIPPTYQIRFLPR
Procedure: as §1, §2

CYP3A4 [4] = target: T4, CYP3A4 (Homo sapiens, UniProt P08684); conditions: bortezomib 2 μM; human liver microsomes; cited from earlier work
Target sequence in this assay (P08684 whole entry): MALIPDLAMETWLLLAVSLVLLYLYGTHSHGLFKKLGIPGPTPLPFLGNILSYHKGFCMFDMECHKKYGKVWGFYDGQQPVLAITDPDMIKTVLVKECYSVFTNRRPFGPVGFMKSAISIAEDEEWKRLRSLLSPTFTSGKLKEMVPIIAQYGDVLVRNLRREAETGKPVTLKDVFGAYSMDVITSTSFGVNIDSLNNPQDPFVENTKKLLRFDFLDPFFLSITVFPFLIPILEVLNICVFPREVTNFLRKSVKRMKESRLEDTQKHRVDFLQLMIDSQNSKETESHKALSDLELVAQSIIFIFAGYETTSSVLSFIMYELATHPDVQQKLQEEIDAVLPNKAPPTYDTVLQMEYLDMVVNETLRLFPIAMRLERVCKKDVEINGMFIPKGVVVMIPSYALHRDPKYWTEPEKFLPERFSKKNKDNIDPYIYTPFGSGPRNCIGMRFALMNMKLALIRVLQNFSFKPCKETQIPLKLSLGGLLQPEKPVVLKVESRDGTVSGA

CYP3A4 [5] = target: T4, CYP3A4; conditions: healthy volunteer; ritonavir 600 mg; loperamide 16 mg; cited from earlier work
Target sequence in this assay (P08684 whole entry): as above

CYP3A4 [6] = target: T4, CYP3A4; conditions: healthy volunteers; itraconazole 100 mg; loperamide 4 mg; cited from earlier work
Target sequence in this assay (P08684 whole entry): as above

CYP2D6 [7] = target: T1, CYP2D6; conditions: mirtazapine 2.5 to 1000 μM; human recombinant enzyme model; cited from earlier work
CYP3A4 [8] = target: T4, CYP3A4; conditions: mirtazapine 2.5 to 1000 μM; human recombinant enzyme model; cited from earlier work
Target sequence in this assay (P08684 whole entry): as above

CYP3A4 [9] = target: T4, CYP3A4
Procedure: as §1, §2
Target sequence in this assay (P08684 2-503): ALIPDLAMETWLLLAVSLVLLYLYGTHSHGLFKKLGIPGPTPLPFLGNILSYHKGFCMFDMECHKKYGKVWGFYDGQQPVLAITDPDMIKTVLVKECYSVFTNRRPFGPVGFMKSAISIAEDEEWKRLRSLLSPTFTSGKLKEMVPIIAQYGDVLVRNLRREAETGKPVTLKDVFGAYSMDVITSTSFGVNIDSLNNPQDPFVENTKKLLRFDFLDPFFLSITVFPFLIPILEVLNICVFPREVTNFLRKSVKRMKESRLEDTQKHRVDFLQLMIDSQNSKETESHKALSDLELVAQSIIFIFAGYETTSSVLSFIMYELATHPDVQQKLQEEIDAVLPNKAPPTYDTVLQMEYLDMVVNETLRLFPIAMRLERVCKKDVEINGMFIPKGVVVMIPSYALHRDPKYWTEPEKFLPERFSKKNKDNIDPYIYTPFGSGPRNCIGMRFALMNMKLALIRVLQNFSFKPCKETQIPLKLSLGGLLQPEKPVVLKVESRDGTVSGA

CYP2B6 [10] = target: T3, CYP2B6; conditions: in a pool of human liver; cited from earlier work

SMILES: CC(C)C[C@H](NC(=O)[C@H](Cc1ccccc1)NC(=O)c1cnccn1)B(O)O [bortezomib]
- intrinsic clearance in the presence of control microsomes [1]: 6.9-11 ml/min/g of proteins
- inhibition of intrinsic clearance = % involvement of CYP1A2 in the oxidative metabolism (kit of isolated microsomes) (CYP1A2): No significant inhibition
- inhibition of intrinsic clearance = % involvement of CYP2D6 in the oxidative metabolism (kit of isolated microsomes) (CYP2D6 [2]): No significant inhibition
- inhibition of intrinsic clearance = % involvement of CYP2C9 in the oxidative metabolism (kit of isolated microsomes) (CYP2C9): No significant inhibition
- inhibition of intrinsic clearance = % involvement of CYP2C8 in the oxidative metabolism (kit of isolated microsomes) (CYP2C8): No significant inhibition
- inhibition of intrinsic clearance = % involvement of CYP2B6 in the oxidative metabolism (kit of isolated microsomes) (CYP2B6 [3]): No significant inhibition
- inhibition of metabolism by anti-CYP 3A4 monoclonal antibody = % involvement of CYP3A4, expected data (Uttamsingh et al.) (CYP3A4 [4]): 79%

SMILES: CN(C)C(=O)C(CCN1CCC(O)(c2ccc(Cl)cc2)CC1)(c1ccccc1)c1ccccc1 [loperamide]
- increase in exposure, factor (CYP3A4 [5]): 2.65
- increase in exposure, factor (CYP3A4 [6]): 3.8

SMILES: CN1CCN2c3ncccc3Cc3ccccc3C2C1 (centres unmarked) [mirtazapine]
- intrinsic clearance in the presence of control microsomes [1]: 3.9-7.8 ml/min/g of proteins
- inhibition of intrinsic clearance = % involvement of CYP2C9 in the oxidative metabolism (kit of isolated microsomes) (CYP2C9): No significant inhibition
- inhibition of intrinsic clearance = % involvement of CYP2C8 in the oxidative metabolism (kit of isolated microsomes) (CYP2C8): No significant inhibition
- inhibition of intrinsic clearance = % involvement of CYP2B6 in the oxidative metabolism (kit of isolated microsomes) (CYP2B6 [3]): No significant inhibition
- % involvement of CYP2D6 in the metabolism, expected data (Störmer et al.) (CYP2D6 [7]): 39%
- % involvement of CYP3A4 in the metabolism, expected data (Störmer et al.) (CYP3A4 [8]): 23%

SMILES: CN[C@H]1CC[C@@H](c2ccc(Cl)c(Cl)c2)c2ccccc21 [sertraline]
- intrinsic clearance in the presence of control microsomes [1]: 52.5-70.5 ml/min/g of proteins
- inhibition of intrinsic clearance = % involvement of CYP2C9 in the oxidative metabolism (kit of isolated microsomes) (CYP2C9): No significant inhibition
- inhibition of intrinsic clearance = % involvement of CYP3A4 in the oxidative metabolism (kit of isolated microsomes) (CYP3A4 [9]): No significant inhibition
- inhibition of intrinsic clearance = % involvement of CYP2C8 in the oxidative metabolism (kit of isolated microsomes) (CYP2C8): No significant inhibition
- % involvement of CYP2B6 in the metabolism, expected data (Obach et al.) (CYP2B6 [10]): 60%
